The test system of one data set is SQ20B. In words: Clonogenic survival of SQ20B with chelerythrine chloride and adriamycin. The data set is classed as cell-based, human.
For data set [1], the system named is MCF7, MCF7ADR, HT29, DaOY and LnCaP cells. In words: MTT cytotoxicity assay, tumor cell line panel. The data set is classed as cell-based. The settings on record: Homo sapiens, exposure to drug for 4 h, range over MCF7, MCF7ADR, read-out: ED50 (effective dose required to inhibit the growth by 50% of the cells). How it is done:
(§1) FIG. 2A depicts that MCF7 (closed circle), MCF7ADR (open circle), HT29 (open square), DAOY (closed triangle) and LnCaP (open triangle) cells were exposed to fresh medium containing increasing concentrations of chelerythrine chloride for 4 h. After 6 days (MCF7, MCF7 ADR, HT29), 7 days (DAOY) or 13 days (LnCAP), MTT analysis was performed to determine cell density. Inhibition of cell growth relative to control (zero drug addition) was calculated for each concentration. Each point represents the mean of three determinations. […] Inhibition of cell growth relative to control (zero drug addition) was calculated for each concentration. […]
(§2) Cytotoxicity was evaluated using modifications of a described MTT assay (Hansen et al., 1989). […] A microplate reader set at 570 nm was used to determine the absorbance. Results are expressed as the fraction of the optical density determined for cells treated with drug compared to those treated with vehicle.
(§3) The cytotoxic effects of chelerythrine were evaluated in 9 human tumor cell lines to assess its spectrum of activity. Chelerythrine decreased cell viability as determined by the MTT assay in a dose-dependent manner in MCF7 breast (wt p53)(Blagosklonny et al., 1995), MCF7ADR breast (resistant to adriamycin), HT29 colon (mutant p53)(Shao et al., 1997), DaOY brain (mutant p53)(U et al., 1998), and LnCaP (mutant p53) (Carroll et al., 1993) prostate cells (FIG. 2). […]
A general note: Formazan colour is commonly taken as a measure of viable cells.

A short description of data set [2]: Acute lethality (LD50), intraperitoneal. Conditions: mouse, in vivo; intraperitoneal (IP) in mice; read-out: LD50 (dose causing a 50% mortality). How it is done: Basal activity of the enzyme (the activity in the absence of Ca^++, phosphatidylserine and dioleine) was not affected. In the present invention, the LD50 (dose causing a 50% mortality) was 20 mg/kg intraperitoneal (IP) in mice.

The next data set has as its system SQ-20B cells. Kind of data set: DAPI staining of cell and nuclear morphology (apoptosis). The data set is classed as cell-based, human. Conditions: 5 μM chelerythrine, 72 h following treatment. How it is done: DAPI was used to visualize nuclei […] and overlaid to the phase contrast image. Left, untreated control cells, right 5 μM chelerythrine treated cells.
5×10^5 SQ-20B cells were centrifuged at 1000 rpm and resuspended in approximately 100 μl of media. The cell suspension was then […] with 100 μl of DAPI (4′, 6-iamidino-2-phenylindole, Sigma, 1 μg/ml in PBT [PBS+1% Triton X-100]. One drop of this mixture was then placed on a microslide with a coverslip. The cells were viewed by fluorescence microscopy using an Olympus BX-40 microscope with a 100 Watt Mercury lamp, a 16 or 40×Fluorite objective, N.A. 0.75, (Leco #1-UB527) and a UV filter cube (ex 330-385 nm, em 420 nm, wide band pass, Leco #U-M536). Images were photographed using an Optronics cooled low-light video camera (Leco #DEI-470TB) with a 2× coupler (Leco #HR200-CMT). The image was saved to a digital file at 72 dpi for subsequent image processing with Paint Shop Pro 5 (JASC) running on a Windows NT4 workstation.
The inventors examined whether the concentrations of chelerythrine that decrease viability in the MTT assay induce apoptosis of SQ-20B cells. The inventors examined cell and nuclear morphology by DAPI staining (FIG. 3). Following exposure of SQ-20B cells to 5 μM chelerythrine, morphological changes consistent with apoptosis were observed (FIG. 3A) in nearly 100% of the cells 72 h following treatment.

For data set [3], the system named is SQ-20B, JSQ-3, SCC-35 and SCC61 cells. In words: MTT cytotoxicity assay, oral tumor cell lines. It is filed as cell-based. Conditions: Homo sapiens, SQ20B, range over SQ-20B, read-out: ED50 (the source's name). How it is done:
as §1, §2, §3

In a further data set the test system is L-1210 tumor cells. Conditions: cited from earlier work.
A short description of data set [4]: Body weight and deaths in treated xenograft-bearing mice. The data set is classed as in vivo. The settings on record: 2.5-5 mg/kg IP. How it is done:
Mice were weighed on days 8, 9, 10, 11, 12, 13, 14, 15, 16, 17, 18, 21. Symbols represent the mean weight of animals in the representative treatment groups.
(§4) Control mice (n=12) were weighed and injected IP with PBS on days 8, 10, and 12. To determine the proper injection volume, the weight of a mouse (in grams) was divided by 100, and the resulting number (in μl ) was used. Chelerythrine was dissolved in the corresponding volume of PBS. Mice in treatment group 2 (n=10) were injected IP on days 8, 10, and 12 with […]. Treatment group 3 (n=8) mice revere injected IP on days 8, 11, and 14 with 5 mg/kg chelerythrine chloride. Treatment group 4 mice (n=10) were injected IP on days 8, 11, 14, and 17 with 5 mg/kg chelerythrine chloride. Volume was determined on days 8, 10, 13, 15, 17, 21. Body weight was measured on days 8, 9, 10, 11, 12, 13, 14, 15, 16, 17, 18, 21. Each data point represents the mean of 1-3 individual studies (minimum of 8 mice/treatment groups).
At no time did body weight of any study animal fall below 90% of the initial weight at the beginning of treatment. […] Similar results were obtained in two independent studies.

Another data set deals with SQ-20B xenografts. In words: SQ-20B xenograft tumor growth in nude mice. It is filed as in vivo. Conditions: for mean tumor volume: IP. As for the experimental part:
Athymic (nude) mice were injected SC in the right hind limb with 5×10^6 SQ20B cells. Tumors were allowed to grow for 8 days at which time treatment was started. Control mice were weighed and injected IP with PBS on days 8, 10, and 12. Treatment group 2 (n=10 were injected once IP on days 8, 10, and 12 with 2.5 mg/kg chelerythrine chloride, treatment group 3 (n=8) were injected once IP on days 8, 10, and 12 with 5 mg/kg chelerythrine chloride, and treatment group 4 (n=8) were injected once IP on days 8, 11 and 14 with 5 mg/kg chelerythrine chloride. Tumor volume was determined on days 8, 10, 13, 15, 17, 21. Each data point represents the mean of 1-3 individual studies +/−SEM. The Mann-Whitney Rank Sum Test (p<0.05) denoted in the graphs by “*”.
SQ-20B (1-5×10^6 tumor cells were injected into the right hind limbs of Sprague-Dawley nude mice (Fredrick Cancer Research Institute, Fredrick Md.). Xenografts were grown for 2-3 wk at which time animals were sorted into treatment groups such that the mean tumor volume was 45 mm^3+/−4.5 mm^3 (SD). At day 0, initial tumor volume was determined by direct measurement with calipers, and tumor volume was deterred and calculated using the equation 1×w^2×0.5 (Hallahan et al., 1995). During treatment tumor volumes were measured twice weekly and are presented as percent of original tumor volume. Data are presented as fractional tumor volume +/−SEM. Significance analyzed using the Mann-Whitney Rank Sum Test (p<0.05) and denoted in the graphs by “*”.
as §4
Mice bearing SQ-2QB xenografts (n>8 for all groups) were injected IP with 2.5 mg/kg on days 8, 10, 12 (Group 2, n=10), 5mg/kg on days 8, 10, 12 (Group 3, n=8), and 5 mg/kg on days 8, 11, 14 (Group 4, n=8). […] By day 21, the mean tumor volumes measured 370 mm^3 in control group, 215 mm^3 in group 1, 197 mm^3 in group 2, and 115 mm^3 in group 3. […]

Another data set concerns SQ20B cells. Kind of data set: MTT cytotoxicity assay, SQ20B, dependence on exposure time. Conditions: Homo sapiens, read-out: ED50 (the source's name). The data set is classed as cell-based. How it is done: Cytotoxicity was evaluated using modifications of a described MTT assay (Hansen et al., 1989). Briefly, cells growing as a monolayer were plated at a density of 500 cells/well in 96 well-plates and allowed to grow for 24 h. […] 6-13 days after drug treatment, 25 μl of a 5 mg/ml solution of MTT was added to each well followed 4 h later by the addition of 100 μl lysing buffer (20% sodium dodecyl sulfate, 50% N, N-dimethylformamide and 0.8% acetic acid, pH 4.7) for an additional 22 h. A microplate reader set at 570 nm was used to determine the absorbance. Results are expressed as the fraction of the optical density determined for cells treated with drug compared to those treated with vehicle.
as §3, with “2). The effective dose required to inhibit the growth by 50% of the cells (ED50) ranged between 2 and 5 μM upon exposure to drug for 4 h.” for “2).”

The values that follow come from patent US6426351B1, “Chelerythrine-based therapies for cancer” (priority 2000, dated 2002).

Like-named read-outs stand apart in the source and are kept apart here.

Take `COc1cccc2c1C(=O)c1c(O)c3c(c(O)c1C2=O)C[C@@](O)(C(=O)CO)C[C@@H]3O[C@H]1C[C@H](N)[C@H](O)[C@H](C)O1` [adriamycin, reference compound]: the “survival (clonogenic)” value in the data set with SQ20B (adriamycin 1 ng/mL alone (0 chelerythrine)) amounted to 1.09; with SQ20B (adriamycin 10 ng/mL alone (0 chelerythrine)), 0.822; with SQ20B (adriamycin 50 ng/mL alone (0 chelerythrine)), 0.359.
The term LD50 denotes the dose at which mortality reaches 50%. The term IC50 denotes the concentration that inhibits the measured activity by half. Take `COc1ccc2c(c[n+](C)c3c4cc5c(cc4ccc23)OCO5)c1OC` [chelerythrine, 1,2-dimethoxy-12-methyl[1,3]benzodioxolo[5,6-c]phenanthridinium]: the EC50 in [1] was 2000 to 5000 nM; in data set [3], 4000 to 5200 nM; with SQ20B cells (exposed for 4 h), 3700 nM; in the data set on SQ20B cells (exposed for 8 h), 1800 nM. Further, in [2], the LD50 is 20 mg/kg. In the data set with SQ-20B cells, the “cells with morphological changes consistent with apoptosis” value is given as roughly 100%. Further, the IC50 with L-1210 tumor cells is 53 nM. The treatment related deaths result in [4] was “no treatment related deaths”. In addition, the “body weight relative to the initial weight at the beginning of treatment” value in data set [4] (any study animal, at any time) is recorded as no less than 90%. Besides, the “percent change in volume of treated tumors compared to control tumors (%T/C)” value with SQ-20B xenografts (day 21, all treatment groups) is on record as “less than 40%”. Moreover, the mean tumor volume in the data set on SQ-20B xenografts (day 21, group 1 as printed) worked out at 215 mm^3; in the data set on SQ-20B xenografts (day 21, group 2 as printed), 197 mm^3; in the data set with SQ-20B xenografts (day 21, group 3 as printed), 115 mm^3. Also, the “survival (clonogenic)” value with SQ20B (chelerythrine chloride 2 μM alone (0 ng/mL adriamycin)) is listed as 0.99; in the data set on SQ20B (chelerythrine chloride 4 μM alone (0 ng/mL adriamycin)), 0.103; in the data set on SQ20B (chelerythrine chloride 6 μM alone (0 ng/mL adriamycin)), 0.034.
